From patent EP4813990A1, “COMPOUND FOR TREATING CANCER” (INNOLAKE BIOPHARMA (HANGZHOU) CO., LTD., priority 2023, dated 2025)

Experiments:
A2b receptor = A2b receptor (Homo sapiens, UniProt P29275); assay: Adenosine receptor selectivity, A2aR compared with A2b; format: binding
Text: (§1) Meanwhile, ILB-2109 had high selectivity for A2aR (compared with A1, A2b and A3 receptors, the selectivity was 18.9 times, 40.7 times and 3424.7 times respectively).

A2aR = A2aR (Homo sapiens, UniProt P29274); assay: Antagonism of A2aR activity at the cellular level; format: cell-based
A2aR, sequence (P29274 whole entry): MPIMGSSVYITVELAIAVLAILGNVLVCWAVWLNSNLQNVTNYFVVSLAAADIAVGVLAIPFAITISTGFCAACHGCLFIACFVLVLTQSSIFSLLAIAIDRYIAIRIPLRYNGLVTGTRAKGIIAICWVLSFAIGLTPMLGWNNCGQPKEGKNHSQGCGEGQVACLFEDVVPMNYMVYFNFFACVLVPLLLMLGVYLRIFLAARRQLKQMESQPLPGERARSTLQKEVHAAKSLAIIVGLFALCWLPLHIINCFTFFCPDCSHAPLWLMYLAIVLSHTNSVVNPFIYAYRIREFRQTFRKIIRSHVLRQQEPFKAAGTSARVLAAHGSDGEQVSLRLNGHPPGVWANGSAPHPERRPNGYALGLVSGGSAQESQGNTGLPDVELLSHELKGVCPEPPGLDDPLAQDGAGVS
Text: as §1

Caco-2 cells = assay: Caco-2 permeability; format: in vitro ADME
[1] = In vivo metabolism in cynomolgus monkeys (plasma profile); conditions: male and female monkeys
Text: In in vivo metabolism experiments of cynomolgus monkeys, the relative abundance of parent drug ILB-2109 in plasma samples of male and female monkeys was more than 83%, which was the main component in plasma samples. ILB-2109 was mainly metabolized via oxidation, dehydrogenation and glucuronidation in monkey plasma.

CYP1A2 = target: T1, CYP1A2 (Homo sapiens, UniProt P05177); assay: Human liver microsome CYP inhibition (direct and time-dependent); format: in vitro ADME
T1 construct: In vitro human liver microsome tests; from tissue; host or cells: human liver microsomes
T1 sequence (P05177 whole entry): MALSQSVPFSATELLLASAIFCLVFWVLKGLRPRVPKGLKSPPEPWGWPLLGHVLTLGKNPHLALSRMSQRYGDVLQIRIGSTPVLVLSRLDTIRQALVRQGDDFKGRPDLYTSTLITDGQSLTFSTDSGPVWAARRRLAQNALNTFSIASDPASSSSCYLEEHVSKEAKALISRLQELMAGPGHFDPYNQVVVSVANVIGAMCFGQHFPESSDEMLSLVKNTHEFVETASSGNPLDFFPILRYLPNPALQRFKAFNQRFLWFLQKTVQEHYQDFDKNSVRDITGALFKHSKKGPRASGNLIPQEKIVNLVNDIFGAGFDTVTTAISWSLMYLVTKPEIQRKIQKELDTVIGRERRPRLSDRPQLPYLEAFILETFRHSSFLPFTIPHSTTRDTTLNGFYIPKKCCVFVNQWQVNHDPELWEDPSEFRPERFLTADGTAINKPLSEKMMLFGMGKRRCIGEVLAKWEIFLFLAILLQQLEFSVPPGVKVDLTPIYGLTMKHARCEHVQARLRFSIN
Text: (§2) The non-dilution method was used to determine the time-dependent inhibitory effect of ILB-2109 on human liver microsomal cytochrome P450 isoenzymes (CYP1A2, CYP2B6, CYP2C8, CYP2C9, CYP2C19, CYP2D6 and CYP3A4). Generally, an IC50 shift multiple ≥1.5 was taken as the judgment standard for time-dependent inhibitors.

CYP2B6 = target: T2, CYP2B6 (Homo sapiens, UniProt P20813); assay: as above; format: in vitro ADME
T2 construct: In vitro human liver microsome tests; from tissue; host or cells: human liver microsomes
T2 sequence (P20813 whole entry): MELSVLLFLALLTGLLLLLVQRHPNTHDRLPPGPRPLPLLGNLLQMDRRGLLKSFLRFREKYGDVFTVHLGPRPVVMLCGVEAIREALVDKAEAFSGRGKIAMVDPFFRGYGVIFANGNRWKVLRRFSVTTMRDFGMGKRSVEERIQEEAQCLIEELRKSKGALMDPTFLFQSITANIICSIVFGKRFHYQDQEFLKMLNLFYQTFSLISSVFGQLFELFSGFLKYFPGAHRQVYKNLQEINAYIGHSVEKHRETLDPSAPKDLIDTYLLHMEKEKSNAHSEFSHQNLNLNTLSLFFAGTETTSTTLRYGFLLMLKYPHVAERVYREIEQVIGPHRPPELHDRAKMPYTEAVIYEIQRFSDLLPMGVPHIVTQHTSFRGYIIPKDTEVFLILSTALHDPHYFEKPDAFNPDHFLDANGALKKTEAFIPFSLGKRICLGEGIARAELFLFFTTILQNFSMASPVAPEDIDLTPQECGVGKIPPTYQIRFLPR
Text: as §2

CYP2C19 = target: T3, CYP2C19 (Homo sapiens, UniProt P33261); assay: as above; format: in vitro ADME
T3 construct: In vitro human liver microsome tests; from tissue; host or cells: human liver microsomes
T3 sequence (P33261 whole entry): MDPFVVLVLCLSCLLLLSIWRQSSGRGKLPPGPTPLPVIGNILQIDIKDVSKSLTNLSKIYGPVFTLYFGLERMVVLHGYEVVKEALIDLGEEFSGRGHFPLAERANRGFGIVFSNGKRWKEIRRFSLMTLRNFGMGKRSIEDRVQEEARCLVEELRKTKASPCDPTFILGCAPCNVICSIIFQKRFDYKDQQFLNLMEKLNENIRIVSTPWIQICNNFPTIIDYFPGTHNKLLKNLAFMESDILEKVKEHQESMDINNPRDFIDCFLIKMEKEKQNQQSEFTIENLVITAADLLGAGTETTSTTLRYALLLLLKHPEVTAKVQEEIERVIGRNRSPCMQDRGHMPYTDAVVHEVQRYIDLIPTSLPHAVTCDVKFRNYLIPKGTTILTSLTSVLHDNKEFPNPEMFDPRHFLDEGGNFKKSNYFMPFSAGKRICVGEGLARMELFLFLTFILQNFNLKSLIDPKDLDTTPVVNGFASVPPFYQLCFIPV
Text: as §2

CYP2C8 = target: T4, CYP2C8 (Homo sapiens, UniProt P10632); assay: as above; format: in vitro ADME
T4 construct: In vitro human liver microsome tests; from tissue; host or cells: human liver microsomes
T4 sequence (P10632 whole entry): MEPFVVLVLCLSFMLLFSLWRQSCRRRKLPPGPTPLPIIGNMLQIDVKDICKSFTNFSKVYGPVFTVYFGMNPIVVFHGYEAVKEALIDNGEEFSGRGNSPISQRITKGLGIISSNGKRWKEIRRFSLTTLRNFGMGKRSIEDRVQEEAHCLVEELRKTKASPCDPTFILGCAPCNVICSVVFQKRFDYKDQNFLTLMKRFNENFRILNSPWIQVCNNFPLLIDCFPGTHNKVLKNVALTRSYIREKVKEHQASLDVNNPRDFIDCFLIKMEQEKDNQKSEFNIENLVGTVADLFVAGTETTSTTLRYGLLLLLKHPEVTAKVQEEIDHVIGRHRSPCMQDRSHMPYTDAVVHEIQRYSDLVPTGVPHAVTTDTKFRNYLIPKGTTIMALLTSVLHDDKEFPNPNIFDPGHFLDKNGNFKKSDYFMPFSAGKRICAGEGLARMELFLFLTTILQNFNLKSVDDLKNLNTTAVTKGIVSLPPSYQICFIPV
Text: as §2

CYP2C9 = target: T5, CYP2C9 (Homo sapiens, UniProt P11712); assay: as above; format: in vitro ADME
T5 construct: In vitro human liver microsome tests; from tissue; host or cells: human liver microsomes
T5 sequence (P11712 whole entry): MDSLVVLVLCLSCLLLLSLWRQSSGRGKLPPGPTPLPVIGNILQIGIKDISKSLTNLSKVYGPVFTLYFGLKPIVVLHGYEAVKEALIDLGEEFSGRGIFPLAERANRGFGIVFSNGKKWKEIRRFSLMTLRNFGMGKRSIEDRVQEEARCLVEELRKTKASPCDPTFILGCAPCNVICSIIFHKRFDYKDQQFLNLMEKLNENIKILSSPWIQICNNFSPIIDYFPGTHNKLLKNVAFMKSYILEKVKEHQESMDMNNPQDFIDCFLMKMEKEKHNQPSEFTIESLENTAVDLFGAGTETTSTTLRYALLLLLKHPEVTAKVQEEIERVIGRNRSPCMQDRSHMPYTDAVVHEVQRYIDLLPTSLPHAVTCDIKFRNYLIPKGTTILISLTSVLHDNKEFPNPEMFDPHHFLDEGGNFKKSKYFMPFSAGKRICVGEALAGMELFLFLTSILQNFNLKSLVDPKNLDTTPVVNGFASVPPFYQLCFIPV
Text: as §2

CYP2D6 = target: T6, CYP2D6 (Homo sapiens, UniProt P10635); assay: as above; format: in vitro ADME
T6 construct: In vitro human liver microsome tests; from tissue; host or cells: human liver microsomes
T6 sequence (P10635 whole entry): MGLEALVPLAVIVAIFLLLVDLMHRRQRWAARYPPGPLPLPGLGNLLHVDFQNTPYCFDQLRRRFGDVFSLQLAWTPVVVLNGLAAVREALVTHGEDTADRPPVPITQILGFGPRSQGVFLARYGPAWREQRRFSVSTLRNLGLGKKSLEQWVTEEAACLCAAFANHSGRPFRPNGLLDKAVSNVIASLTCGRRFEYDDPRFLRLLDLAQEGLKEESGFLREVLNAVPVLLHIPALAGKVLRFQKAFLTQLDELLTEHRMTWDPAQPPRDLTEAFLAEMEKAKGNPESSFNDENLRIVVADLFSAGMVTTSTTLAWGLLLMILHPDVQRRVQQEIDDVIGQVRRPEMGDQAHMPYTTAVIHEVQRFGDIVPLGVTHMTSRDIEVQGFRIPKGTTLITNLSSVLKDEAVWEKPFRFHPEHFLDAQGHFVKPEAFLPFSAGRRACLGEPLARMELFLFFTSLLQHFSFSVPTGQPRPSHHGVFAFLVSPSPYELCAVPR
Text: as §2

CYP3A4 = target: T7, CYP3A4 (Homo sapiens, UniProt P08684); assay: as above; format: in vitro ADME; conditions: for IC50: human liver microsomes
T7 construct: In vitro human liver microsome tests; from tissue; host or cells: human liver microsomes
T7 sequence (P08684 2-503): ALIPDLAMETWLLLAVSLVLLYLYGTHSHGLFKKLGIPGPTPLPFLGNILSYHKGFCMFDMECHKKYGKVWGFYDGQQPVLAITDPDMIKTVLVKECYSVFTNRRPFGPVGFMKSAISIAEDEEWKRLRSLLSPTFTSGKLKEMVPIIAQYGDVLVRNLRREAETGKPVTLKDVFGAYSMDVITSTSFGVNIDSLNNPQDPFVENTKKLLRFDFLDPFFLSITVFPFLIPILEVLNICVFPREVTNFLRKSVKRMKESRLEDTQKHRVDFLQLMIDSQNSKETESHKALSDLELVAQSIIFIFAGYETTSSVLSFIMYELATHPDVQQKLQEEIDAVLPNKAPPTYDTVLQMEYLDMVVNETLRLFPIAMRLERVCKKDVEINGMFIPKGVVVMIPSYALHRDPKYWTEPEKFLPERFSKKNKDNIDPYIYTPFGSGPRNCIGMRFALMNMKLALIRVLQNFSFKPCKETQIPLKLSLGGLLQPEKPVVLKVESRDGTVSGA
Text: as §2

[2] = Single-dose toxicity study in rats; conditions: Sprague-Dawley, rat, in vivo, po; SD rats, single intragastric administration, observed for 14 days; read-out: maximum tolerated dose (MTD)
Description: (§3) In accordance with the relevant requirements of the Good Laboratory Practice for Non-clinical Drug Studies issued by the National Medical Products Administration of the People's Republic of China, and following the test protocol and revisions, the safety pharmacology test, single-dose toxicity, genetic toxicity, etc. of ILB-2109 were explored.
SD rats were given single intragastric administration of ILB-2109 and observed for 14 days. The single doses were 0 (vehicle), 500, 1000 and 2000 mg/kg ILB-2109. […] No abnormalities were found in body weight, food consumption, clinical examination and gross anatomy. Under the test conditions, the maximum tolerated dose (MTD) of ILB-2109 in rats was 2000 mg/kg.

[3] = 4-week repeated-dose toxicity test in rats; design: species or system SD rats; conditions: Sprague-Dawley, rat, in vivo
Description: as §3
SD rats were given continuous intragastric administration of ILB-2109 at doses of 0 (vehicle), 60, 200 and 600 mg/kg for 28 consecutive days. […] WBC and #LYMPH increased or tended to increase in medium and high-dose groups; GLU decreased or tended to decrease in medium and high-dose groups; CREA and UREA increased or tended to increase in female high-dose group; GLOB increased and A/G decreased in female animals of each dose group. […] All the above changes completely recovered during the recovery period. […] ILB-2109 may have toxic effects on digestive system (liver function), blood system (granulocyte series) and urinary system (renal function) of SD rats, which can be reversed at the end of the recovery period.

[4] = 4-week repeated-dose toxicity test in cynomolgus monkeys; format: in vivo
Text: as §3
40 cynomolgus monkeys (half male and half female) were randomly divided into 4 groups with 5 animals per gender in each group, and given intragastric administration of 0 (vehicle), 20, 60 and 200 mg/kg/day ILB-2109 once a day for 28 consecutive days. […] Combined with gross observation and histopathological examination results, the cause of animal death was considered to be related to lung injury. […] All the above changes completely recovered during the recovery period. In addition, no drug-related changes were found in body temperature, respiration, electrocardiogram, ophthalmic examination and bone marrow. There was no gender difference in systemic exposure in each dose group; no obvious accumulation; the increase ratio of systemic exposure was lower than the increase ratio of dose.
Attention should be paid to the potential impact of ILB-2109 on respiratory system, blood system, endocrine system and other systems in clinical use.

[5] = non-dilution method, IC50 shift multiple ≥1.5 as judgment standard
[6] = female, cynomolgus monkey, in vivo, 20 mg/kg
[7] = female, cynomolgus monkey, in vivo, 60 mg/kg
[8] = male, cynomolgus monkey, in vivo, 20 mg/kg
[9] = male, cynomolgus monkey, in vivo, 60 mg/kg

A2b receptor, sequence (P29275 whole entry): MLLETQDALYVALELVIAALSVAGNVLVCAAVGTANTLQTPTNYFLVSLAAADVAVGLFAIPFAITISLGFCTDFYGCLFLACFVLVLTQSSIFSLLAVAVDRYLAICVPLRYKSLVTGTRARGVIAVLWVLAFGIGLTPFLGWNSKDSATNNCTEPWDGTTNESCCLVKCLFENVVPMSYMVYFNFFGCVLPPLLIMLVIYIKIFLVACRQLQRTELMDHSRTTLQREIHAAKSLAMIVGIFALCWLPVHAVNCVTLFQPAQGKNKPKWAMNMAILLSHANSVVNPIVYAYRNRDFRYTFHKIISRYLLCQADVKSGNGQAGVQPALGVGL

With `Cc1cc(-c2c(-c3ccccc3)nc(N)n3nc(CO)nc23)cc(C(F)(F)F)n1` [ILB-2109] the “selectivity for A2aR compared with A2b receptor” value (A2b receptor) was 40.7 times, the IC50 (A2aR; antagonism of A2aR activity) was 0.00043 µM and the IC50 (A2aR; tumor physiological equivalent conditions (NECA 5 µM)) was 0.00108 µM. For the same compound, the efflux transporter substrate (Caco-2 cells; Caco-2 cells) was “most likely a substrate of efflux transporters”, the “permeability in Caco-2 cells” value (Caco-2 cells; according to existing classification standards) was “high permeability” and the “relative abundance of parent drug in plasma samples” value [1] was “more than 83%”. For the same compound, the IC50 (CYP1A2; human liver microsomes) was over 100 µM, the time-dependent inhibitory effect (CYP1A2; [5]) was “no time-dependent inhibitory effect” and the IC50 (CYP2B6; human liver microsomes) was over 100 µM. For the same compound, the time-dependent inhibitory effect (CYP2B6; [5]) was “no time-dependent inhibitory effect”, the IC50 (CYP2C19; human liver microsomes) was 91.6 µM and the time-dependent inhibitory effect (CYP2C19; [5]) was “no time-dependent inhibitory effect”. For the same compound, the IC50 (CYP2C8; human liver microsomes) was 33.9 µM, the time-dependent inhibitory effect (CYP2C8; [5]) was “no time-dependent inhibitory effect” and the IC50 (CYP2C9; human liver microsomes) was 57.2 µM. The time-dependent inhibitory effect (CYP2C9; [5]) was “no time-dependent inhibitory effect”, the IC50 (CYP2D6; human liver microsomes) was over 100 µM and the time-dependent inhibitory effect (CYP2D6; [5]) was “no time-dependent inhibitory effect”. The IC50 (CYP3A4; midazolam as substrate) was over 100 µM, the IC50 (CYP3A4; testosterone as substrate) was over 100 µM and the time-dependent inhibitory effect (CYP3A4; [5]) was “no time-dependent inhibitory effect”. For the same compound, the MTD at 14 days [2] was 2000 mg/kg, the AUC(0-t) ([3]; oral, female SD rats, 600 mg/kg (MTD), 4-week study, read-out: AUC0-24h) was 725 µg·h/mL and the Cmax ([3]; oral, female SD rats, 600 mg/kg (MTD), 4-week study, read-out: Cmax) was 69400 ng/mL. For the same compound, the AUC(0-t) ([3]; oral, male SD rats, 600 mg/kg (MTD), 4-week study, read-out: AUC0-24h) was 481 µg·h/mL, the Cmax ([3]; oral, male SD rats, 600 mg/kg (MTD), 4-week study, read-out: Cmax) was 36300 ng/mL and the NOAEL at 28 days ([3]; both sexes, po) was 60 mg/kg. The MTD at 28 days ([3]; both sexes, po, SD rats, intragastric, 28 consecutive days) was 600 mg/kg, the AUC(0-t) ([3]; female, 60 mg/kg) was 296 µg·h/mL and the Cmax ([3]; female, 60 mg/kg) was 22200 ng/mL. For the same compound, the AUC(0-t) ([3]; male, 60 mg/kg) was 114 µg·h/mL, the Cmax ([3]; male, 60 mg/kg) was 15900 ng/mL and the NOAEL at 28 days ([4]; both sexes, cynomolgus monkey, in vivo, po) was 20 mg/kg. For the same compound, the mortality ([4]; cynomolgus monkeys, high-dose group 200 mg/kg/day, death considered related to lung injury) was 1 male animal in the high-dose group was found dying 2 h after administration on D3, the HNSTD ([4]; cynomolgus monkeys, intragastric once a day, 28 consecutive days) was 60 mg/kg and the AUC(0-t) [4, 6] was 61 µg·h/mL. For the same compound, the Cmax [4, 6] was 5010 ng/mL, the AUC(0-t) [4, 7] was 149 µg·h/mL and the Cmax [4, 7] was 11900 ng/mL. For the same compound, the AUC(0-t) [4, 8] was 80.2 µg·h/mL, the Cmax [4, 8] was 6580 ng/mL and the AUC(0-t) [4, 9] was 206 µg·h/mL. The Cmax [4, 9] was 14300 ng/mL.
